Laboratory results as given in patent US12186358B2, “Compositions and methods for supporting immune health” (Plexus Worldwide, LLC, priority 2021, dated 2025).

Key:
Assay type in all cases: cell-based, Human
Settings in all cases: LPS 0.1 ng/mL
IL-6 = test: Cytokine expression in PBMC supernatants (Luminex multiplex): IL-6
Procedure: (§1) An exemplary natural-based composition is evaluated in an in vitro Peripheral Blood […] Cells cellular inflammation model.
(§2) Test Item Preparation: 120 mg of the exemplary composition (Project Shield) was dissolved in 6000 μL of CGM on the day of use to create a 2% (w/v) Dilution Stock Solution. A 2 ng/mL Working Stock of Lipopolysaccharides (“LPS”) was prepared fresh with IM and stored at 2-8° C. 10 μL LPS (2 ng/mL) was added to the appropriate wells for a final concentration of 0.1 ng/mL.
(§3) Complete Growth Media (CGM): To formulate CGM, RPMI was supplemented with 10% FBS and 100 U/mL penicillin+100 μg/mL streptomycin. CGM was prepared aseptically and stored at 2-8° C. for the duration of the study. CGM was warmed to 37° C. prior to use.
(§4) Cell Culture Set-up: Cells were thawed according to manufacturer's instructions, washed in CGM and assessed for viability using trypan blue staining. A stock cell solution of 2×10^6 cells/mL suspended in CGM was prepared. 100 μL of the stock solution was added to appropriate wells of a 96-well plate to seed 2×10^5 cells per well. […]
(§5) As illustrated in FIGS. 1-8, inflammatory cytokine expression for cell supernatants at 48 hours post stimulation/treatment. Expression was assessed by multiplex using the Luminex platform for the following cytokines: IFNγ, IL-1β, IL-6, IL-8, IL-10, IL-12p40, IL-12p70, TNF-α. […]

IL-12p40 = test: Cytokine expression in PBMC supernatants (Luminex multiplex): IL-12p40
Procedure: as §1, §2, §3, §4, §5

IL-1β = test: Cytokine expression in PBMC supernatants (Luminex multiplex): IL-1β
Procedure: as §1, §2, §3, §4, §5

TNF-α = test: Cytokine expression in PBMC supernatants (Luminex multiplex): TNF-α
Procedure: as §1, §2, §3, §4, §5

IL-12p70 = test: Cytokine expression in PBMC supernatants (Luminex multiplex): IL-12p70
Procedure: as §1, §2, §3, §4, §5

IFNγ = test: Cytokine expression in PBMC supernatants (Luminex multiplex): IFNγ
Procedure: as §1, §2, §3, §4, §5

IL-10 = test: Cytokine expression in PBMC supernatants (Luminex multiplex): IL-10
Procedure: as §1, §2, §3, §4, §5

IL-8 = test: Cytokine expression in PBMC supernatants (Luminex multiplex): IL-8
Procedure: as §1, §2, §3, §4, §5

Lipopolysaccharides [LPS]
not significantly increased: IL-1β, LPS control Group vs Media Control (IL-1β; donor 1, 48 h) | IL-1β, LPS control Group vs Media Control (IL-1β; donor 2, 48 h)
not donor 2: IL-10, LPS control Group vs Media Control (IL-10; donor 2, 48 h)
significantly increased: IL-6, LPS control Group vs Media Control (IL-6; donor 1, 48 h) | IL-6, LPS control Group vs Media Control (IL-6; donor 2, 48 h) | IL-12p40, LPS control Group vs Media Control (IL-12p40; donor 1, 48 h) | IL-12p40, LPS control Group vs Media Control (IL-12p40; donor 2, 48 h) | TNF-α, LPS control Group vs Media Control (TNF-α; donor 2, 48 h) | IL-12p70, LPS control Group vs Media Control (IL-12p70; donor 1, 48 h) | IL-12p70, LPS control Group vs Media Control (IL-12p70; donor 2, 48 h) | IFNγ, LPS control Group vs Media Control (IFNγ; donor 1, 48 h) | IFNγ, LPS control Group vs Media Control (IFNγ; donor 2, 48 h) | IL-10, LPS control Group vs Media Control (IL-10; donor 1, 48 h) | IL-8, LPS control Group vs Media Control (IL-8; donor 2, 48 h)
not donor 1: TNF-α, LPS control Group vs Media Control (TNF-α; donor 1, 48 h) | IL-8, LPS control Group vs Media Control (IL-8; donor 1, 48 h)
